# Measured values published in publication PMC7156456, “Modulation of virus-induced NF-κB signaling by NEMO coiled coil mimics” (Nature Communications, 2020).
# Peptide text beside a SMILES is read from it. * marks the point of attachment. Cbz = O=C(OCc1ccccc1)*
# Tests used:
# [1] = tested on: vFLIP and NEMO levels in Namalwa Mut vFLIP cell line; test: vFLIP protein stability, Namalwa Mut vFLIP cell line; assay type: cell-based; settings: 5 μM, within 2 h of treatment
# Description: vFLIP protein stability and turnover was measured by treating Namalwa WT vFLIP and NF-kB dead vFLIP mutant cell lines in the presence or absence of 5 μM of the proteasomal inhibitor MG-132 (Calbiochem cat 474790) and 100 μg/mL of the protein synthesis inhibitor cycloheximide (Sigma-Aldrich, cat. 66-81-9). Cells were harvested at the indicated time intervals and lysed in RIPA buffer and supernatants were analyzed by immunoblotting.
# [2] = tested on: BC-1; design: method as in earlier work; settings: BC-1, PEL, KSHV+/EBV+; ref 2,3,4 (supplement); read-out: PU-H71 LC50; cited from earlier work
# [3] = tested on: BC-2; design: method as in earlier work; settings: BC-2, PEL, KSHV+/EBV+; ref 2,3,4 (supplement); read-out: PU-H71 LC50; cited from earlier work
# [4] = tested on: BC-3; design: method as in earlier work; settings: BC-3, PEL, KSHV+; ref 2,3,4 (supplement); read-out: PU-H71 LC50; cited from earlier work
# [5] = tested on: BCBL-1; design: method as in earlier work; settings: BCBL-1, PEL, KSHV+; ref 2,3,4 (supplement); read-out: PU-H71 LC50; cited from earlier work
# [6] = tested on: Namalwa; design: method as in earlier work; settings: Burkitt, EBV+, ref 2,3,4 (supplement), read-out: PU-H71 LC50; cited from earlier work
# [7] = molecular target: T1, vFLIP/NEMO interaction (Human herpesvirus 8 type P, UniProt F5HEZ4); test: biochemical; assay type: binding, Kaposi's sarcoma herpesvirus (KSHV)
# T1 construct: vFLIP (1-178) and NEMO (150-272) were cloned into pET28a vector; made in house; host or cells: E. coli BL21(DE3)
# Description: For the competition assay, two-fold serial dilution of the different NEMO mimetics were prepared in DMSO then diluted in TR-FRET buffer to 5× and added in triplicates to a 384 low volume well plate. His-MBP vFLIP diluted to 5× in TR-FRET buffer (250 nM) was then added to each well and incubated for 15 min at RT. His-Biotinylated NEMO diluted to 5× in TR-FRET buffer (250 nM) was the added to the mixture followed by addition of 5× or 200 nM) streptavidin-XL665 and (5× or 1 nM) of the antibody-tagged fluorophore anti-MBPK labeled with Europium cryptate). The final concentration of the NEMO mimetics ranged from 0.195 μM to 100 μM. Total assay volume was 20 μL. The plate was incubated for 1 h at RT then read using BioTek Synergy NEO. Titration of non-biotinylated NEMO (0.0195-10 μM) was used as a positive control in every run. The effect of the peptides on vFLIP/NEMO interaction was normalized to the control and expressed as percent inhibition (% of control):
# %ofcontrol=FRETCHD−FRETbackground/FRETcontrol−FRETbackground where FRET control is the TR-FRET signal in DMSO treated wells (highest signal) and FRET background is TR-FRET signal in wells containing the highest concentration of non-biotinylated NEMO (10 μM) which provides the lowest signal. Normalized TR-FRET data was plotted using Graphpad Prism.
# Supplementary Figure 1. Schematic representation of the Time-resolved Fluorescence Energy Transfer (TR-FRET) binding assay. (a) Complexes of recombinant his-MBP vFLIP, biotinylated His-NEMO, Europium cryptate conjugated anti-MBP antibody and strepavidin XL665 were used to generate proximity for a FRET signal between the donor fluorophore Europium cryptate and the acceptor fluorophore strepavidin XL665. The TR-FRET signal was calculated as a ratiometric measurement of the acceptor fluoroscence emission at 665nm over the donor emission at 620nm multiplied by 10000. […] (d) Size exclusion chromatography of NEMO-vFLIP complex indicating a shift to the left in absorbance at 280nm when NEMO binds specifically to vFLIP. […]
# [8] = molecular target: full length NEMO (Homo sapiens, UniProt Q9Y6K9); test: Fluorescence polarization direct binding assay, NEMO control
# Description: The relative affinity of FITC-CHD3^NEMO to MBP-vFLIP were determined using fluorescence polarization-based direct binding assay. The polarization experiments were performed using a DTX 880 Multimode Detector (Beckman) at 25 °C with excitation and emission wavelengths of 485 and 525 nm, respectively. Each polarization experiment was performed in a 96-well round bottom plate (Greiner) in assay buffer: 20 mM Tris-HCl, 150 mM NaCl, 0.5 mM TCEP, 10% glycerol, 0.1% pluronic acid, pH 8. The binding affinity (KD) values reported for each peptide are from experiments performed in triplicate. Raw values were fit to a sigmoidal dose-response nonlinear regression model in Graphad Prism 6.0.
# All binding experiments with FITC-labeled CHD peptide to MBP-vFLIP were performed under the same conditions. Briefly, serial dilutions of MBP-vFLIP were made from 75 μM into 100 nM of FITC-labeled CHD peptide in assay buffer. KD was determined using the following equation[56]: KD=RT×1−FSB+LST×FSB2/FSB−LST where, […]
# [9] = tested on: BC-1 PEL cells; test: Live cell confocal microscopy, cellular uptake; assay type: cell-based
# Description: Cells were then added to 35 mm glass bottom MatTek poly-lysine coated plates (p356c-0-10C) and immunofluorescence images were captured using LSM880 confocal miscroscope with Airyscan resolution detector, spectral detector and incubation. Images were processed using Fiji software (Supplementary Fig. 11).
# T1 sequence (F5HEZ4 1-178): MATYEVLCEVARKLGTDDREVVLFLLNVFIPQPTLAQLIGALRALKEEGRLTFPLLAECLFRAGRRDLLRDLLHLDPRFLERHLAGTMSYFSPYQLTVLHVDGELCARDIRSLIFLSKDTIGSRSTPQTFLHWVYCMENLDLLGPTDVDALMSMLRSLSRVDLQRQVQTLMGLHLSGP
# Sequence of full length NEMO (Q9Y6K9 193-252 limits assumed): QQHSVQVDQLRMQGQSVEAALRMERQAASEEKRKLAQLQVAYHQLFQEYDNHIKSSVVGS
structure (smiles),measurement,setting,value
CC(C)C[C@@H](C=O)NC(=O)[C@H](CC(C)C)NC(=O)[C@H](CC(C)C)NC(=O)OCc1ccccc1 [MG132] (Cbz-Leu-Leu-Leu-aldehyde),vFLIP and NEMO protein levels,[1],stabilized vFLIP protein and increased NEMO levels
CC(C)NCCCn1c(Sc2cc3c(cc2I)OCO3)nc2c(N)ncnc21 [PU-H71],CC50,[2],36.9 nM
same,CC50,[3],27.1 nM
same,CC50,[4],63.4 nM
same,CC50,[5],217 nM
same,CC50,[6],337 nM
CC[C@H](C)[C@H](NC(=O)[C@H](C)NC(=O)[C@H](CCC(=O)O)NC(C)=O)C(=O)N[C@@H](CCCNC(=N)N)C(=O)N[C@@H](CCC(N)=O)C(=O)N[C@@H](CC(C)C)C(=O)N[C@@H](Cc1ccc(O)cc1)C(=O)N[C@@H](CCC(=O)O)C(=O)N[C@@H](CCC(=O)O)C(=O)N[C@H](C(=O)N[C@@H](CCCNC(=N)N)C(=O)N[C@@H](CC(N)=O)C(=O)N[C@@H](CC(C)C)C(=O)N[C@@H](CCCCn1cc(COCc2cn(CCCC[C@H](NC(=O)[C@H](CCCNC(=N)N)NC(=O)[C@H](Cc3ccccc3)NC(=O)[C@H](CC(C)C)NC(=O)[C@H](CCCNC(=N)N)NC(=O)[C@H](Cc3c[nH]cn3)NC(=O)[C@@H](NC(=O)[C@H](CCC(=O)O)NC(C)=O)[C@@H](C)CC)C(=O)N[C@H](C(=O)N[C@@H](CC(=O)O)C(=O)N[C@@H](CCC(=O)O)C(=O)N[C@@H](CC(C)C)C(=O)N[C@H](C(=O)N[C@@H](CCCNC(=N)N)C(N)=O)[C@@H](C)CC)[C@@H](C)CC)nn2)nn1)C(N)=O)[C@@H](C)CC [CHD1^NEMO],Ki,[7],> 50000 nM
CC[C@H](C)[C@H](NC(=O)[C@H](C)NC(=O)[C@H](CCC(=O)O)NC(C)=O)C(=O)N[C@@H](CCCNC(=N)N)C(=O)N[C@@H](CCC(N)=O)C(=O)N[C@@H](CC(C)C)C(=O)N[C@@H](Cc1c[nH]c2ccccc12)C(=O)N[C@@H](CCC(=O)O)C(=O)N[C@@H](CCC(=O)NC1CCCCC1)C(=O)N[C@H](C(=O)N[C@@H](CCCNC(=N)N)C(=O)N[C@@H](CCCNC(=N)N)C(=O)N[C@@H](CC(C)C)C(=O)N[C@@H](CCCCn1cc(COCc2cn(CCCC[C@H](NC(=O)[C@H](CCCNC(=N)N)NC(=O)[C@H](Cc3ccccc3)NC(=O)[C@H](CC(C)C)NC(=O)[C@H](CCCNC(=N)N)NC(=O)[C@H](C)NC(=O)[C@@H](NC(=O)[C@H](CCC(=O)O)NC(C)=O)[C@@H](C)CC)C(=O)N[C@H](C(=O)N[C@@H](CC(=O)O)C(=O)N[C@@H](CCC(=O)O)C(=O)N[C@@H](CC(C)C)C(=O)N[C@H](C(=O)N[C@@H](CCCNC(=N)N)C(N)=O)[C@@H](C)CC)[C@@H](C)CC)nn2)nn1)C(N)=O)[C@@H](C)CC [CHD4^NEMO],Ki,[7],> 50000 nM
CC[C@H](C)[C@H](NC(=O)[C@H](CC(C)C)NC(=O)[C@H](CCC(=O)O)NC(=O)[C@H](CC(=O)O)NC(=O)[C@@H](NC(=O)[C@H](CCCCn1cc(COCc2cn(CCCC[C@H](NC(=O)[C@H](CC(C)C)NC(=O)[C@H](CCCNC(=N)N)NC(=O)[C@H](CCCNC(=N)N)NC(=O)[C@@H](NC(=O)[C@H](CCC(=O)NC3CCCCC3)NC(=O)[C@H](CCC(=O)O)NC(=O)[C@H](Cc3c[nH]c4ccccc34)NC(=O)[C@H](CC(C)C)NC(=O)[C@H](CCC(N)=O)NC(=O)[C@H](CCCNC(=N)N)NC(=O)[C@@H](NC(=O)[C@H](Cc3c[nH]c4ccccc34)NC(=O)[C@H](CCC(=O)O)NC(=O)CCNC(=S)Nc3ccc4c(c3)C(=O)OC43c4ccc(O)cc4Oc4cc(O)ccc43)[C@@H](C)CC)[C@@H](C)CC)C(N)=O)nn2)nn1)NC(=O)[C@H](CCCNC(=N)N)NC(=O)[C@H](Cc1ccccc1)NC(=O)[C@H](CC(C)C)NC(=O)[C@H](CCCNC(=N)N)NC(=O)[C@H](Cc1c[nH]cn1)NC(=O)[C@@H](NC(=O)[C@H](CCC(=O)O)NC(C)=O)[C@@H](C)CC)[C@@H](C)CC)C(=O)N[C@@H](CCCNC(=N)N)C(N)=O [FITC-CHD3^NEMO],binding to wild-type NEMO coiled coil,[8],does not bind
same,cellular uptake,"[9]; 500 nM FITC-labeled peptide, 37 °C, live BC-1 cells",enters BC-1 cells
same,cellular uptake at 4 °C / with sodium azide,[9]; 4 °C or 10 mM sodium azide,reduction in cellular uptake
